Source: patent US20060256599A1, “Database of electronically profiled cells and methods for generating and using same” (priority 2005, published 2006)

Tests used:
cells in culture = test: effect of chemotherapeutic agents on cellular conductance and cell number; assay type: cell-based; conditions: 100 ng in each ml of media, DMEM + 10% serum, FIG. 6
Protocol: FIG. 6 depicts the effect of chemotherapeutic agents on cellular conductance and cell number.
Cells were seeding at a density of 1.0E+5 in 2 ml of DMEM with 10% FBS. The cells were grown and cultured for 24 hours. On day 2 eight wells were counted in a Coulter type counter after harvesting by trypsinization for initial cell count. Additional wells containing cells were examined to confirm cell viability and health by phase microscopy. The media as then aspirated and wells were filled with DMEM+10% serum (control) or DMEM+10% serum containing various concentrations of chemotherapeutic agent (e.g. Methotrexate.). The dose was 100 ng in each ml of media.

[1] = tested on: rat primary neonatal explants; conditions: in vitro; from King et al., Genentech paper; cited from earlier work

Molecule	cell number (cells in culture; Coulter type counter)	cell conductance (cells in culture)	metabolic activity (heart beats) increased [1] [%]
CN(Cc1cnc2nc(N)nc(N)c2n1)c1ccc(C(=O)N[C@@H](CCC(=O)O)C(=O)O)cc1 [Methotrexate]	decreased cell number	decrease in cell conductance	
CNC[C@H](O)c1cccc(O)c1 [PE, Phenylephrine]			84
leukemia inhibitory factor [LIF]			125
prostaglandin F2alpha [PGF]			54
